Measured values as given in ChEMBL document CHEMBL5465560, “Selectivity Literature for EUbOPEN Chemogenomic Library” (2024).

Legend:
[1] = target: Tyrosine-protein kinase CSK (Homo sapiens) (UniProt P41240); assay: Selectivity interaction (Kinase panel (KiNativ target engagement assay in Jurkat cells)) EUB0001635a CSK; type: cell-based; conditions: at 1 µM
[2] = target: Receptor-type tyrosine-protein kinase FLT3 (Homo sapiens) (UniProt P36888); assay: Selectivity interaction (KinomeScan (DiscoverX)) EUB0000666a FLT3; conditions: at 10 µM
[3] = target: T1, Serine/threonine-protein kinase Nek9 (Homo sapiens) (UniProt Q8TD19); assay: Selectivity interaction (KinomeScan (DiscoverX)) EUB0000666a NEK9; conditions: at 10 µM
T1 sequence (whole entry): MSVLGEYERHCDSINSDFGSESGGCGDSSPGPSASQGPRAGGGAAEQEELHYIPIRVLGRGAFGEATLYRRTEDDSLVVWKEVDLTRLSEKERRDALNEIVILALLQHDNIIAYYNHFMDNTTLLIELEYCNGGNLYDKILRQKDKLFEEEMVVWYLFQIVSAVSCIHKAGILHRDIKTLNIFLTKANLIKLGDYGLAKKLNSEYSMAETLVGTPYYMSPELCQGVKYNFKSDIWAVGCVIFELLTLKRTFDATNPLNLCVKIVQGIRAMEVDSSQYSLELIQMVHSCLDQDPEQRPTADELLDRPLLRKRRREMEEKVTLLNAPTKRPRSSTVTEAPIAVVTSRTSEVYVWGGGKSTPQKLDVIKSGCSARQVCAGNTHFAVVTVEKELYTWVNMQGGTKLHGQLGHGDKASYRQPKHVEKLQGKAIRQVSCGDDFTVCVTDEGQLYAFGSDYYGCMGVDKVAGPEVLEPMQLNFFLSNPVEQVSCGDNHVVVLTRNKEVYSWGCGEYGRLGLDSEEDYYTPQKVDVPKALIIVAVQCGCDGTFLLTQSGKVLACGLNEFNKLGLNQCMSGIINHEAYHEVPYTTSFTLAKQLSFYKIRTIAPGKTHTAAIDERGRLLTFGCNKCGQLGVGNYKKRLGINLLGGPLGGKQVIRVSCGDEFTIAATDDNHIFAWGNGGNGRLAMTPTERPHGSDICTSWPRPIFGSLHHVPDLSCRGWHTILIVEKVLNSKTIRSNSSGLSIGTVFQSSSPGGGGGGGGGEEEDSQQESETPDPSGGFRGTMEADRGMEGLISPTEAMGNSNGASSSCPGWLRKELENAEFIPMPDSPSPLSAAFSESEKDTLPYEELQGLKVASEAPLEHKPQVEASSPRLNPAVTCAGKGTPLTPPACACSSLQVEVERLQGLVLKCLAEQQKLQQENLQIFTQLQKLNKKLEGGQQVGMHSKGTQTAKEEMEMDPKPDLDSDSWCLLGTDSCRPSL

[4] = target: Macrophage colony-stimulating factor 1 receptor (Homo sapiens) (UniProt P07333); assay: Selectivity interaction (KinomeScan (DiscoverX)) EUB0001049a CSF1R; conditions: at 1 µM
[5] = target: Eukaryotic translation initiation factor 2-alpha kinase 1 (Homo sapiens) (UniProt Q9BQI3); assay: Selectivity interaction (KinomeScan (DiscoverX)) EUB0001049a EIF2AK1; conditions: at 1 µM
[6] = tested on: Epidermal growth factor receptor (Homo sapiens), P00533 [G719C]; assay: (§1) Selectivity interaction (KinomeScan (DiscoverX)) EUB0000045b EGFR
[7] = tested on: Epidermal growth factor receptor (Homo sapiens), P00533 [L858R,T790M]; assay: as §1
[8] = tested on: Epidermal growth factor receptor (Homo sapiens), P00533 [UNDEFINED MUTATION]; assay: as §1
[9] = target: T2, 3-phosphoinositide-dependent protein kinase 1 (Homo sapiens) (UniProt O15530); assay: Selectivity interaction (KinomeScan (DiscoverX)) EUB0000618a PDPK1; conditions: at 10 µM
T2 sequence (whole entry): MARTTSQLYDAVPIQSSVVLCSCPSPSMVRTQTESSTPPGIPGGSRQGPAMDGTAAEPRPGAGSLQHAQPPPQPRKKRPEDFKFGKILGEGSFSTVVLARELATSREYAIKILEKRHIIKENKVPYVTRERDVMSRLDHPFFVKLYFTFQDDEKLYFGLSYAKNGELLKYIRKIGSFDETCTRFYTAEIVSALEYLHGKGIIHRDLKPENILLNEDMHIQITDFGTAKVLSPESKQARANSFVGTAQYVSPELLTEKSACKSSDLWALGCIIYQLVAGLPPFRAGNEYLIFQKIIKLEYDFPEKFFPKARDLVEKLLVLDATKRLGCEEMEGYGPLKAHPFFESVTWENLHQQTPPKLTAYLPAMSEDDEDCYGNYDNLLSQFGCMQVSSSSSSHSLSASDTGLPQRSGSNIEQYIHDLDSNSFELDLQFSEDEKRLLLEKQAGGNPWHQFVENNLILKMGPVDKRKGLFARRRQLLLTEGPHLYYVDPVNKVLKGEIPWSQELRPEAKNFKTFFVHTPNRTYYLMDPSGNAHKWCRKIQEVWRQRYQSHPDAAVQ

Sequence of Epidermal growth factor receptor (Homo sapiens), P00533 [L858R,T790M] (P00533 whole entry T790M/L858R, looked up): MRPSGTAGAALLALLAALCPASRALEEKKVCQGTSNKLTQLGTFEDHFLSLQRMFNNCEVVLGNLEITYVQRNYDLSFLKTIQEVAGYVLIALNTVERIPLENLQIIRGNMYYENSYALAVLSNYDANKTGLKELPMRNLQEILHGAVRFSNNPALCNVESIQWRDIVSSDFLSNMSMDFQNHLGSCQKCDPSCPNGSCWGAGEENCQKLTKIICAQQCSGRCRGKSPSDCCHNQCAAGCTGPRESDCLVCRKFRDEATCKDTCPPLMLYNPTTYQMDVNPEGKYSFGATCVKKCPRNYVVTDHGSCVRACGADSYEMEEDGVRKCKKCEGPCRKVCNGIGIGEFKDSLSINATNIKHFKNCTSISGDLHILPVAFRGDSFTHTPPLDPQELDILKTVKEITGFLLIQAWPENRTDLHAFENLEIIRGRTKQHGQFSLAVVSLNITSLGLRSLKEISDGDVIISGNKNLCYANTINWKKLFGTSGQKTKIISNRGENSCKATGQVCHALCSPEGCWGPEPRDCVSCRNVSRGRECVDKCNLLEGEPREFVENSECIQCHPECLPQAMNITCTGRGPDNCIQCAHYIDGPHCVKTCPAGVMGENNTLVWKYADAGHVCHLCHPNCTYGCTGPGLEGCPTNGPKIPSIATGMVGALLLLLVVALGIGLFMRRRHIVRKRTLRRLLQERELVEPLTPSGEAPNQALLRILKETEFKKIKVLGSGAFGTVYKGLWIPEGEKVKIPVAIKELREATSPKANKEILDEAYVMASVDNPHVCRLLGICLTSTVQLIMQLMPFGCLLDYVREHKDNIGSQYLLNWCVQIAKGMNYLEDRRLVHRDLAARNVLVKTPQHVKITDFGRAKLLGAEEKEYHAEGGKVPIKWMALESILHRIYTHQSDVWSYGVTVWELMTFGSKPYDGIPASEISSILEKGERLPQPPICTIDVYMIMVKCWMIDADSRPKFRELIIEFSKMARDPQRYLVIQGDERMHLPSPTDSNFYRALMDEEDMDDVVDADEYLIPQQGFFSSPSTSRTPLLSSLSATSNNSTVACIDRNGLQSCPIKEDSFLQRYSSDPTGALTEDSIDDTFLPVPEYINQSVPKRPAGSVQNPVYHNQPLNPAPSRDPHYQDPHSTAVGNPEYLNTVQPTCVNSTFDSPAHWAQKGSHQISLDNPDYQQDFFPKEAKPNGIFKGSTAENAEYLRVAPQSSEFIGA
Sequence of Tyrosine-protein kinase CSK (Homo sapiens) (P41240 2-450 limits assumed): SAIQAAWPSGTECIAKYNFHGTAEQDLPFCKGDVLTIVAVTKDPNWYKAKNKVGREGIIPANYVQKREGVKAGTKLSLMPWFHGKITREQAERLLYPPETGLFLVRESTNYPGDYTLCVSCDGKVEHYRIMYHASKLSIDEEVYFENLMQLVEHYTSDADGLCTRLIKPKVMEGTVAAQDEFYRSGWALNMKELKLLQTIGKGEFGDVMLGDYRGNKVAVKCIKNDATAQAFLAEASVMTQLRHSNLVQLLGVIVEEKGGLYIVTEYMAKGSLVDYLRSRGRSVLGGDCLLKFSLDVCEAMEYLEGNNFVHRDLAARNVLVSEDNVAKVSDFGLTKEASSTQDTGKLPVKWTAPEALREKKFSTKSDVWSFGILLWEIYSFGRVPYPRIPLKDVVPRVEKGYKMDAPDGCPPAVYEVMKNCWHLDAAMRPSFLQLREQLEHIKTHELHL
Sequence of Epidermal growth factor receptor (Homo sapiens), P00533 [UNDEFINED MUTATION] (P00533 whole entry, looked up, change not shown): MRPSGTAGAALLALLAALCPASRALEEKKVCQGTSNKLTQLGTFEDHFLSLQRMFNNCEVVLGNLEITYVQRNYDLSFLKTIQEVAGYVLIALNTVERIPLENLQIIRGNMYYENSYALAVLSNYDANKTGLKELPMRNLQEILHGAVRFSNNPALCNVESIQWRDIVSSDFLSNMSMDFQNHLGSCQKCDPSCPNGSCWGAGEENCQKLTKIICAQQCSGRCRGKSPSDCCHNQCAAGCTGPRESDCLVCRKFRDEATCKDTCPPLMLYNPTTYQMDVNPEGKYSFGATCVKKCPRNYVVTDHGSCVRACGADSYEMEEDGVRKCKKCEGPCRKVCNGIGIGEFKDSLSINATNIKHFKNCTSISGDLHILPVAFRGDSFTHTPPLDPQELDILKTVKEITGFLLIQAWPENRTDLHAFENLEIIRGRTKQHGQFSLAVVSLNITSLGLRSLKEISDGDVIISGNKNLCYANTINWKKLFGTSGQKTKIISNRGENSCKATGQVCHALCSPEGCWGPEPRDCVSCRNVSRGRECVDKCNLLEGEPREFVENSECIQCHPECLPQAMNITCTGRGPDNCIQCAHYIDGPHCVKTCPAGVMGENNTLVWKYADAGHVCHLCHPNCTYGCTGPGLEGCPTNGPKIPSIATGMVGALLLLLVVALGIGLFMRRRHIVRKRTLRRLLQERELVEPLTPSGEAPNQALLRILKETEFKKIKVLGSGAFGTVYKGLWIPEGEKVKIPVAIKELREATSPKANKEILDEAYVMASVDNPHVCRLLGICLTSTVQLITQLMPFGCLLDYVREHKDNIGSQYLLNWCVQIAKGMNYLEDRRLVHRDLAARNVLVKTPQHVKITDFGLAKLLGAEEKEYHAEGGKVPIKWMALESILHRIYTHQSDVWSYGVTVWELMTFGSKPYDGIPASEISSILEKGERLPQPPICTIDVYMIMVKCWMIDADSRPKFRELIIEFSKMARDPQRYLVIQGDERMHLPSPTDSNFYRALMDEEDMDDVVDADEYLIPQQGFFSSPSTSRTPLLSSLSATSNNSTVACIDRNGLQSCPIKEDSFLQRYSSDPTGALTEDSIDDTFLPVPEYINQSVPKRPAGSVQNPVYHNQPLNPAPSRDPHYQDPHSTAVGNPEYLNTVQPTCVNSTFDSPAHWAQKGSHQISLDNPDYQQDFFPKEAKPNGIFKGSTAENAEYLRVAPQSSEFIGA
Sequence of Epidermal growth factor receptor (Homo sapiens), P00533 [G719C] (P00533 whole entry G719C): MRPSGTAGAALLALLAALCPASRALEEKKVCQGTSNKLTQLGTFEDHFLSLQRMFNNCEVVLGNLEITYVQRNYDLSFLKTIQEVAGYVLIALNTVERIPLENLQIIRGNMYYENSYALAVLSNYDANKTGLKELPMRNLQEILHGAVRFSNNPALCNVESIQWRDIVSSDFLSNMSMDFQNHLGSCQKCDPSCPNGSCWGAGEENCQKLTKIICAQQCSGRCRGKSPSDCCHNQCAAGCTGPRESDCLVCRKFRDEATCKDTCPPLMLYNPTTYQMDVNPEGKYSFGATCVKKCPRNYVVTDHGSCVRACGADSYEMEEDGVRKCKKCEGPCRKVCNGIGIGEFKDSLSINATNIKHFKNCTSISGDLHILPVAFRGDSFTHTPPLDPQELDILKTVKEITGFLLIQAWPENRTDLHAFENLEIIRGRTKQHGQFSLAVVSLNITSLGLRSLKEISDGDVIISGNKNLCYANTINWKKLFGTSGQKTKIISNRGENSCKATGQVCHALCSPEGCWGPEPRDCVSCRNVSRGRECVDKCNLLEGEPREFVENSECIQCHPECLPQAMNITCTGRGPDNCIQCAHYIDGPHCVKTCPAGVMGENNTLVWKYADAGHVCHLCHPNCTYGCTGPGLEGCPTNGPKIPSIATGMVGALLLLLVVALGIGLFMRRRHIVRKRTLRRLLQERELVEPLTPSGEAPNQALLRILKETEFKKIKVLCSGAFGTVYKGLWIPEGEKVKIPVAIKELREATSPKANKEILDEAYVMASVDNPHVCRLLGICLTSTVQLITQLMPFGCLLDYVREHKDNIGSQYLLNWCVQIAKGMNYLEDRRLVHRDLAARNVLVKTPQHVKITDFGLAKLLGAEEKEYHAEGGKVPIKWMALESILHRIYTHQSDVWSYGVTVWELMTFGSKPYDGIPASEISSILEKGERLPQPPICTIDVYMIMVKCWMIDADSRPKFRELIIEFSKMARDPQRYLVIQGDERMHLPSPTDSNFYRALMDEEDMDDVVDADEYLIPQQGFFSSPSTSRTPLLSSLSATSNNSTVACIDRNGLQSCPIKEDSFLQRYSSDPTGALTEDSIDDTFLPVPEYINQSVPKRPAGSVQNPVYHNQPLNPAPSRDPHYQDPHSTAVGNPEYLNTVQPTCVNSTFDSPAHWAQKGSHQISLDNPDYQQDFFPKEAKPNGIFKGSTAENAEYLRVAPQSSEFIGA
Sequence of Macrophage colony-stimulating factor 1 receptor (Homo sapiens) (P07333 whole entry): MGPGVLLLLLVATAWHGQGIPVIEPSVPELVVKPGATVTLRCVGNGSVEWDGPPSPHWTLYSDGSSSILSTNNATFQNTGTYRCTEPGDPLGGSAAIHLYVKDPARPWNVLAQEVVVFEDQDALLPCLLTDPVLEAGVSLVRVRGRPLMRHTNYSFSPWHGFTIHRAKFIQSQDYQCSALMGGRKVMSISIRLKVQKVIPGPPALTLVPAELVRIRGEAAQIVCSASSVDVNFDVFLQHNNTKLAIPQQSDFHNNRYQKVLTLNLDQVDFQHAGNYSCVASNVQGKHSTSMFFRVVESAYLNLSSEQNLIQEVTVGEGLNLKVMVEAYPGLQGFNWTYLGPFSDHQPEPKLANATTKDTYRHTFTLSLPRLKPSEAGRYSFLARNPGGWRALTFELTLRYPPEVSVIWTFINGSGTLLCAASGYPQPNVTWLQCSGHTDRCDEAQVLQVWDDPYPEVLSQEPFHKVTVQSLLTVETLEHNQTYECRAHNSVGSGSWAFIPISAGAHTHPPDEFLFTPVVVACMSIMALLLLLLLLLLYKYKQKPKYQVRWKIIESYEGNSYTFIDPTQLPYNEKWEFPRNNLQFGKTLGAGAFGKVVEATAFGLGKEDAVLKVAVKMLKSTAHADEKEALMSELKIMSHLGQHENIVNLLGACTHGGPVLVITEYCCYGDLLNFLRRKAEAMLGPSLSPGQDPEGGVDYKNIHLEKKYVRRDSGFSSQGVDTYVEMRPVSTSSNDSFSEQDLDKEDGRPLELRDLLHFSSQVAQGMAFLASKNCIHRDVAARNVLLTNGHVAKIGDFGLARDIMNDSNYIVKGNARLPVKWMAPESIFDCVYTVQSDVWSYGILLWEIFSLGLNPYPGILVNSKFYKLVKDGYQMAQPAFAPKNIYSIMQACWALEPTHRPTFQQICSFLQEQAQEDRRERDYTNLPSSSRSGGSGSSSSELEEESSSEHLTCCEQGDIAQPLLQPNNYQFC

Molecule `C=CC(=O)Nc1ccc(C(=O)Nc2[nH]nc3c2CN(C(=O)N[C@H](CN(C)C)c2ccccc2)C3(C)C)cc1` has a % of engagement ([1]; Selectivity number of off-targets 0.0, Selectivity number of targets 233.0, Source Knowledge https://www.sciencedirect.com/science/article/pii/S2451945619300674?via%3Dihub) of -7.9% and a % of engagement [1] of -8.1%.
`O=C(NOC[C@H](O)CO)c1ccc(F)c(F)c1Nc1ccc(I)cc1F` gave a % of control [2] of 80% and a % of control [3] of 82%.
`COc1cc(Nc2nc(C)cc(-c3cnn4nc(OC)ccc34)n2)cc(C(F)(F)F)c1` gave a % of control [4] of 100% and a % of control [5] of 89%.
Molecule `C=CC(=O)Nc1cc(-n2c(=O)ccc3cnc4ccc(-c5ccc(NS(C)(=O)=O)cc5)cc4c32)ccc1C` has a % of control ([6]; at 1 µM) of 73%, a % of control ([6]; at 10 µM) of 90% and a % of control ([7]; at 1 µM) of 100%. The % of control ([7]; at 10 µM) was 44%, the % of control ([8]; at 1 µM) was 100% and the % of control ([8]; at 10 µM) was 32%.
`O[C@H]1CC[C@H](Nc2ncc3nc(Nc4c(F)cc(F)cc4F)n([C@H]4CCOC4)c3n2)CC1` showed a % of control [9] of 100%.
